According to US4997652A, “Biodegradable ocular implants” (priority 1989, dated 1991):
“And” between values parts separate entries of the source, which are not always exact repeats. Equal entries are not always repeated. Where two headings read alike, the source gives them in different places.

Tests used:
[1] = Residual vitreous doxorubicin after injection of doxorubicin into the PC; type: in vivo, rabbits
Description: 1. 50 μg/0.1 ml doxorubicin was injected into the posterior chamber (PC) of each of 10 rabbits. The contralateral eye served as control.

eye [2] = test: Ocular toxicity observation after AC injection of unencapsulated doxorubicin; type: in vivo, New Zealand white rabbits
Description: 2. 50 μg/0.10 ml doxorubicin was injected into the […] in each of two rabbits. The contralateral eye was given 0.10 ml of normal saline.

eye [3] = test: Clinical observation of eye after PC injection of doxorubicin; type: in vivo, rabbits; conditions: free drug
Description: 2. 50 μg/0.10 ml of doxorubicin was injected into one eye of two animals for clinical observation for one week. Saline control was injected into the contralateral eye.

in vivo = test: in vivo; set-up: species or system New Zealand white rabbits; conditions: rabbit
Description: 1. 50 μg/0.1 ml doxorubicin was injected into the AC of 10 New Zealand white rabbits. The AC was tapped for doxorubicin assay.

[4] = 50 ug into PC right eye, free drug, 0 hours

SMILES: COc1cccc2c1C(=O)c1c(O)c3c(c(O)c1C2=O)C[C@@](O)(C(=O)CO)C[C@@H]3O[C@H]1C[C@H](N)[C@H](O)[C@H](C)O1 [doxorubicin]
- Residual vitreous doxorubicin, Mean ± SD [1, 4]: 8.55 ± 0.24 µg/mL
- Residual vitreous doxorubicin, single sample [1, 4]: 8.40 µg/mL and 8.74 µg/mL
- Residual vitreous doxorubicin, single sample ([1]; 50 ug into PC right eye, free drug, 2 hours, 120 min): 4.65 µg/mL
- Residual vitreous doxorubicin, single sample ([1]; 50 ug into PC right eye, free drug, 4 hours, 240 min): 3.4 µg/mL
- Residual vitreous doxorubicin, single sample ([1]; 50 ug into PC right eye, free drug, 8 hours, 480 min): 0.75 µg/mL
- Residual vitreous doxorubicin, single sample ([1]; 50 ug into PC right eye, free drug, 16 hours, 960 min): 0.21 µg/mL
- concentration at 2 h ([1]; rabbit, vitreous, 0.05 mg, 50 ug into PC right eye, free drug, 2 hours, read-out: Residual vitreous doxorubicin, Mean ± SD): 5590 ± 1340 ng/mL
- concentration at 2 h ([1]; rabbit, vitreous, 0.05 mg, 50 ug into PC right eye, free drug, 2 hours, read-out: Residual vitreous doxorubicin, single sample): 6540 ng/mL
- concentration at 4 h ([1]; rabbit, vitreous, 0.05 mg, 50 ug into PC right eye, free drug, 4 hours, read-out: Residual vitreous doxorubicin, Mean ± SD): 3850 ± 640 ng/mL
- concentration at 4 h ([1]; rabbit, vitreous, 0.05 mg, 50 ug into PC right eye, free drug, 4 hours, read-out: Residual vitreous doxorubicin, single sample): 4300 ng/mL
- concentration at 8 h ([1]; rabbit, vitreous, 0.05 mg, 50 ug into PC right eye, free drug, 8 hours, read-out: Residual vitreous doxorubicin, Mean ± SD): 860 ± 160 ng/mL
- concentration at 8 h ([1]; rabbit, vitreous, 0.05 mg, 50 ug into PC right eye, free drug, 8 hours, read-out: Residual vitreous doxorubicin, single sample): 980 ng/mL
- concentration at 16 h ([1]; rabbit, vitreous, 0.05 mg, 50 ug into PC right eye, free drug, 16 hours, read-out: Residual vitreous doxorubicin, Mean ± SD): 240 ± 40 ng/mL
- concentration at 16 h ([1]; rabbit, vitreous, 0.05 mg, 50 ug into PC right eye, free drug, 16 hours, read-out: Residual vitreous doxorubicin, single sample): 260 ng/mL
- half-life ([1]; rabbit, vitreous, 0.05 mg, PC injection, 50 ug, read-out: halflife of free doxorubicin (converted)): ~3 h
- ocular toxicity (eye [2]): causes ocular inflammation and corneal edema
- time of ocular inflammation and corneal edema after AC injection (eye [2]): 2 to 3 days
- clinical tolerance of PC injection (eye [3]): well tolerated
- evidence of toxicity (eye [3]): No evidence of toxicity
- half-life (in vivo): ~1 h
